Reference: ChEMBL document CHEMBL5303711, “ECBD screening data for assay EOS300108” (2023)
Counter-ions that a name gives are not always drawn. The source made the active and inactive calls. How the calls were made is not given here.

Experiment: Cytotoxicity activity against human HepG2 cells assessed by CellTiter-Glo luminescent cell viability assay.
Assay type: toxicity, cell-based
Parameters: assay stage confirmatory assay, source tissue liver
Conditions: HepG2 cells, read-out: IC50 relative
With `Nc1nccc(-n2nnc3ccccc32)n1` the CC50 was 8.7 µM (active).
With `O=C(Nc1nccs1)c1cccc(S(=O)(=O)N2CCN(c3ccc(F)cc3)CC2)c1` the CC50 was 3.1 µM (active).
With `CC(C)Cn1ccnc1NC(=O)COc1ccc2ccccc2c1` the CC50 was 1.1 µM (active).
In the case of `CN(C)S(=O)(=O)c1cccc(NC(=O)c2ccc(S(=O)(=O)N(C)c3ccccc3)cc2)c1`, the CC50 is reported as 2.6 µM (active).
In the case of `C=CCc1cccc(/C=N/NC(=O)CN2CCN(Cc3ccccc3)CC2)c1O` [PAC-1], the CC50 is reported as 6.3 µM (active).
For `O=S(=O)(c1cccc2c(I)cccc12)N1CCCNCC1`, the CC50 was 9.7 µM (active).
For `O=C(c1ccc(F)cc1)N1CCN(Cc2noc(-c3ccc(F)cc3)n2)CC1`, the CC50 was 5.8 µM (active).
With `Cc1ccc2nccc(N3CCCC(CCC(=O)N(C)C)C3)c2c1` (configuration not stated) the CC50 was 8.3 µM (active).
With `O=C(NCCCNc1nc(Nc2cccc(NC(=O)N3CCCC3)c2)ncc1I)c1cccs1` [BX-795] the CC50 was 5.2 µM (active).
With `CN1CCN(C)C(CNc2ncc(F)c(N(C)C)n2)C1` (configuration not stated) the CC50 was 50 µM (inactive).
In the case of `NC(=O)c1cc(NC(=O)CCSc2ccccc2Br)[nH]n1`, the CC50 is reported as 13.6 µM (active).
For `Cc1ccc(C)c(N2CCN(CCCNC(=O)CC3Oc4ccccc4NC3=O)CC2)c1` (configuration not stated), the CC50 was 15.7 µM (active).
In the case of `CCc1cccc(NC(=O)Nc2ccc3c(c2)N(S(C)(=O)=O)CC3)c1`, the CC50 is reported as 2.9 µM (active).
For `CCN1/C(=C/C(C)=C/c2sc3ccccc3[n+]2CC)Sc2ccccc21`, the CC50 was 0.4 µM (active).
With `COc1ccc(Nc2nc(CN3CCN(S(=O)(=O)c4cccs4)CC3)cs2)cc1` the CC50 was 7.1 µM (active).
In the case of `COc1ccccc1N1CCN(S(=O)(=O)c2ccc3c4c(cccc24)C(=O)N3)CC1`, the CC50 is reported as 10.8 µM (inactive).
For `CC[C@@H]1[C@H](F)C(=O)N[C@@H]1COc1nccc2cc(C(N)=O)c(OC)cc12` [ZIMLOVISERTIB], the CC50 was 6 µM (active).
In the case of `CCCN1CCC(NC(=O)c2nn(-c3cccc(Cl)c3)nc2C)CC1`, the CC50 is reported as 16.3 µM (inactive).
In the case of `COc1cc2nccc(Oc3ccc(NC(=O)C4(C(=O)Nc5ccc(F)cc5)CC4)cc3)c2cc1OC` [CABOZANTINIB], the CC50 is reported as 9.5 µM (active).
For `COc1ccc(-c2cc(C(=O)N3CCCCC3C)n[nH]2)cc1S(=O)(=O)N1CCCCC1` (configuration not stated), the CC50 was 20.2 µM (inactive).
With `CCN1CCC(NC[C@H](C)Oc2ccc(C(C)C)cc2)CC1` the CC50 was 7.1 µM (active).
For `Cc1cc(OCC(O)CN2CCCCC2)cc(C)c1Cl` (configuration not stated), the CC50 was 10.5 µM (active).
In the case of `O=S1(=O)C[C@H](NC2CCCCC2)[C@@H](S(=O)(=O)c2ccc(Cl)cc2)C1`, the CC50 is reported as 17 µM (active).
For `CC(=O)N1CCCc2cc(S(=O)(=O)N3CCCC(C(=O)N4CCN(c5ccccc5)CC4)C3)ccc21` (configuration not stated), the CC50 was 12.7 µM (inactive).
With `Nc1nc(Nc2ccccc2F)nc2ccccc12` the CC50 was 8.4 µM (active).
With `CN(Cc1ccc2c(c1)OCCO2)C(=O)[C@H]1CCCN(S(N)(=O)=O)C1` the CC50 was 50 µM (inactive).
For `O=C(Nc1nc(-c2ccccn2)cs1)c1ccc(-n2cncn2)cc1`, the CC50 was 1.5 µM (active).
In the case of `O=c1cnnc(NCc2ccccc2)n1Cc1ccccc1`, the CC50 is reported as 4.5 µM (active).
For `Oc1ccc(CCNc2ncnc3cccc(F)c23)cc1`, the CC50 was 3.7 µM (active).
In the case of `COc1cc(-c2cc(-c3ccc(N4CCNCC4)cc3)cnc2C)cc(OC)c1OC`, the CC50 is reported as 9.1 µM (active).
For `CC(C)(C)c1ccccc1Oc1ncccc1NC(=O)Nc1ccc(OC(F)(F)F)cc1`, the CC50 was 7.9 µM (active).
With `Cc1cc(OCC(O)CN2CCN(C)CC2)cc(C)c1Cl` (configuration not stated) the CC50 was 13.9 µM (inactive).
With `COc1cc(F)c(F)c(Nc2ccc(I)cc2F)c1NS(=O)(=O)C1(C[C@H](O)CO)CC1` [REFAMETINIB] the CC50 was 0.1 µM (active).
For `COc1ccc(-c2cn3nc(N4CCC(C(=O)NCCCN5CCN(C)CC5)CC4)sc3n2)cc1`, the CC50 was 4.1 µM (active).
In the case of `COc1ccc(NS(=O)(=O)c2ccc3onc(C(=O)N4CCCC4)c3c2)cc1OC`, the CC50 is reported as 0.6 µM (active).
For `Cc1cc(N(C)C)nc(N2CCN(C(=O)c3ccc(C(C)(C)C)cc3)CC2)n1`, the CC50 was 5.1 µM (active).
With `O=C(Nc1ccc(Cn2cnc3ccccc32)cc1)c1ccc(=O)[nH]n1` the CC50 was 9.7 µM (inactive).
For `CC(=O)Nc1ccc(Nc2nc(C)cc(N3CCCC3)n2)cc1`, the CC50 was 10.2 µM (active).
For `CCS(=O)(=O)c1ncc(Cl)c(C(=O)Nc2ccc(OC)cc2)n1`, the CC50 was 2.6 µM (active).
With `Cc1cnc(Nc2ccc(F)cc2Cl)nc1-c1c[nH]c(C(=O)N[C@H](CO)c2cccc(Cl)c2)c1` the CC50 was 0.7 µM (active).
In the case of `Cc1ccccc1OCC(=O)Nc1ccc(OC2CCN(C)CC2)cc1`, the CC50 is reported as 13.6 µM (inactive).
For `O=C(NOC[C@H](O)CO)c1ccc(F)c(F)c1Nc1ccc(I)cc1F` [MIRDAMETINIB], the CC50 was < 0.1 µM (active).
For `Cc1ccccc1-c1nc(C#N)c(NCC(C)N2CCN(C)CC2)o1` (configuration not stated), the CC50 was 10.8 µM (active).
In the case of `Cc1cnc(NC(=O)Nc2cc(Br)c(C)cc2OC[C@@H]2CNCCO2)cn1` [RABUSERTIB], the CC50 is reported as 5.9 µM (active).
With `CCCOc1ccc(NC(=O)N2CCN(c3ccncc3)CC2)cc1Cl` the CC50 was 7.4 µM (active).
With `C=C(C)[C@@H]1Cc2c(ccc3c2O[C@H]2COc4cc(OC)c(OC)cc4[C@H]2C3=O)O1` the CC50 was 0.3 µM (active).
For `COc1ccc2cc1Oc1ccc(cc1)C[C@H]1c3cc(c(OC)cc3CCN1C)Oc1c(OC)c(OC)cc3c1[C@H](C2)N(C)CC3` [FANCHININ], the CC50 was 1.4 µM (active).
In the case of `O=C(NCCCN1CCOCC1)C1CCN(c2nn3cc(-c4ccc(F)cc4)nc3s2)CC1`, the CC50 is reported as 5.8 µM (active).
For `COc1ccc([N+](=O)[O-])c(S(=O)(=O)c2ccc(Cl)cc2)n1`, the CC50 was 2.2 µM (active).
For `NCCn1cc(C(=O)N2CCN(Cc3ccc(Br)s3)CC2)nn1`, the CC50 was 7.4 µM (active).
With `CNc1nc(Nc2ccc(C(=O)N3CCOCC3)cc2OC)nc2[nH]cc(Cl)c12` the CC50 was 5 µM (active).
For `CCc1cccc2c(C3CCNCC3)c[nH]c12`, the CC50 was 11.4 µM (active).
With `CN(C)C1CCN(C(=O)c2ccc(NC(=O)Nc3ccc(-c4nc(N5CCOCC5)nc(N5CCOCC5)n4)cc3)cc2)CC1` [GEDATOLISIB] the CC50 was 1.7 µM (active).
In the case of `COc1ccccc1OCCNc1ncnc2cc(F)ccc12`, the CC50 is reported as 1.5 µM (active).
For `CCCc1cc(NCCCN2CCOCC2)n2ncc(-c3ccccc3)c2n1`, the CC50 was 10.8 µM (active).
In the case of `CCNc1cc2[o+]c3cc(NCC)c(C)cc3c(-c3ccccc3C(=O)OCC)c2cc1C`, the CC50 is reported as 1 µM (active).
For `CCN(CC)c1cc(C)nc(Nc2ccc(NC(=O)C(C)C)cc2)n1`, the CC50 was 6.8 µM (active).
For `CN(C)c1ccnc(NCCc2cc(F)cc3c2OCOC3)n1`, the CC50 was 10.2 µM (active).
In the case of `c1ccc(CN2C[C@H]3CCNC[C@H]32)cc1`, the CC50 is reported as 15.9 µM (inactive).
In the case of `Cc1nn(-c2cccc(Cl)c2)nc1C(=O)N(C)C1CCNCC1`, the CC50 is reported as 11.4 µM (active).
With `COc1ccc(-c2cn3nc(N4CCCC(C(=O)NCCN5CCCC5)C4)sc3n2)cc1` (configuration not stated) the CC50 was 5.1 µM (active).
With `Cc1sc2c(c1C)C(c1ccc(Cl)cc1)=N[C@@H](CC(=O)Nc1ccc(O)cc1)c1nnc(C)n1-2` [BIRABRESIB] the CC50 was 1.3 µM (active).
With `Cc1noc(C)c1CC(=O)Nc1nc(-c2ccc(S(=O)(=O)N(C)C)cc2)cs1` the CC50 was 4.3 µM (active).
In the case of `CS(=O)(=O)N1CCc2ccc(NC(=O)Nc3ccc(F)cc3F)cc21`, the CC50 is reported as 24.5 µM (inactive).
In the case of `Cc1cnccc1NCCNC1CCN(c2ccc(F)c(F)c2)CC1`, the CC50 is reported as 1.7 µM (active).
In the case of `CCOc1ccc(S(=O)(=O)N(C)c2ccccc2)cc1`, the CC50 is reported as 7.5 µM (inactive).
In the case of `CCN(CC)CCNC(=O)C1CCN(c2nn3cc(-c4ccc(F)cc4)nc3s2)CC1`, the CC50 is reported as 2 µM (active).
With `C[C@]1(c2cccc(C#N)c2)NC(=O)N(Cc2noc(-c3ccsc3)n2)C1=O` the CC50 was 12.5 µM (inactive).
With `CN(C)[C@@H](CCOc1cccc2ccccc12)c1ccccc1` [DAPOXETINE HYDROCHLORIDE] the CC50 was 6.3 µM (active).
For `Cc1cc(N)n(S(=O)(=O)c2oc(-c3ccccc3)nc2C#N)n1`, the CC50 was 7.6 µM (active).
In the case of `CCc1n[nH]cc1C(=O)N[C@H]1CC[C@H](Nc2nccc(-c3ccccn3)n2)C1`, the CC50 is reported as 3.9 µM (active).
In the case of `O=C(Nc1ccccc1-c1cn2c(CN3CCNCC3)csc2n1)c1cnc2ccccc2n1`, the CC50 is reported as 1.6 µM (active).
In the case of `NCc1ccc(-c2ccccc2)s1`, the CC50 is reported as 5.9 µM (active).
In the case of `O=C(c1csc(S(=O)(=O)N2CCC(C(=O)N3CCc4ccccc43)CC2)c1)N1CCCCCC1`, the CC50 is reported as 10.6 µM (inactive).
For `COc1cc2c(cc1OC)CN(CCc1ccc(NC(=O)c3cc(OC)c(OC)cc3NC(=O)c3cnc4ccccc4c3)cc1)CC2`, the CC50 was 27.3 µM (inactive).
For `CC(C)c1ccc(-c2cc(=O)c3ccccc3o2)cc1`, the CC50 was 11.1 µM (active).
For `Oc1ccc2[nH]ncc2c1Br`, the CC50 was 7.1 µM (active).
With `Cc1sc2c(c1C)C(c1ccc(Cl)cc1)=N[C@@H](CC(=O)OC(C)(C)C)c1nnc(C)n1-2` the CC50 was 1.2 µM (active).
With `Cc1cn(CC(=O)c2ccc(NC(=O)CC(C)C)cc2)cc(Br)c1=O` the CC50 was 22.2 µM (inactive).
In the case of `CN(C)CCCN(CCCN(C)C)CC1=CCC2CC1C2(C)C` (configuration not stated), the CC50 is reported as 9.6 µM (active).
For `COc1cc2c(O)c3c(c(-c4ccc5c(c4)OCO5)c2cc1OC)C(=O)OC3` [DIPHYLLIN], the CC50 was 1.4 µM (active).
For `N[C@H]1CC[C@H](Nc2cc(-c3cccc(NCc4cccc(F)c4)n3)c(Cl)cn2)CC1`, the CC50 was 0.1 µM (active).
In the case of `CCN(CC)CCNC(=O)C1CCN(c2nn3cc(-c4ccc(OC)cc4)nc3s2)CC1`, the CC50 is reported as 2.7 µM (active).
With `CCOc1ccc(-n2ccnc(NCc3ccc(OC)c(OC)c3)c2=O)cc1` the CC50 was 5.1 µM (active).
For `Cc1ccc(CC(=O)N2CCN(C(=O)[C@@H]3CCCCO3)CC2)cc1`, the CC50 was 0.6 µM (active).
For `O=C1Nc2cc(Br)ccc2/C1=C1/Nc2ccccc2/C1=N\O` [6BIO], the CC50 was 26.5 µM (inactive).
With `CCCCn1c(=O)c(C(=O)Nc2ccc(O)cc2)c(O)c2ccccc21` the CC50 was 23 µM (inactive).
With `O=C(O)c1ccc2cc(-c3ccc(O)c(C45CC6CC(CC(C6)C4)C5)c3)ccc2c1` [O-DEMETHYLATED ADAPALENE] the CC50 was 8.3 µM (active).
With `CCCc1cc(N2CCN(CCO)CC2)n2ncc(-c3ccccc3)c2n1` the CC50 was 11.5 µM (active).
With `C[C@]12CCC(=O)C=C1CC[C@@H]1[C@@H]2CC[C@]2(C)C(c3cccnc3)=CC[C@@H]12` the CC50 was 28 µM (inactive).
In the case of `COc1cc(N2CCN(C)CC2)ccc1Nc1ncc2c(n1)N(C1CCC1)C(=O)N(c1c(C)cccc1C)C2`, the CC50 is reported as 3.3 µM (active).
In the case of `COc1cc(-c2ccccc2)sc1C(=O)NC1CC1`, the CC50 is reported as 13.4 µM (active).
